Reference: patent US8889156B2, “Calcium-binding agents induce hair growth and/or nail growth” (priority 2009, dated 2014)

How the values were obtained:
[1] = HA binding assay (pulldown of fluorescein-labeled peptides, Langmuir isotherm fit); settings: fit of Langmuir equation
Description: Fluorescein-labeled DSS-containing peptides of various lengths were subjected to pulldown assays as follows: Samples containing varying concentrations of fluorescein-labeled peptide (0-100 μM) and a fixed amount (0.3 mg) of HA nanocrystals with a specific surface area of 100 m^2/g (Berkeley Advanced Biomaterials, Berkeley, Calif.) were prepared. Measurements were taken of the absorbance of the labeled peptide at 488 nm (the peak absorbance of the fluorescein label) before and after exposure to the HA. The amount of peptide bound was calculated by comparing the ratio of the final (Af) and initial (Ai) absorbances to the initial concentration (C0) [Cbound=(Af/Ai)C0]. Plots were generated of the amount of peptide bound per meter squared of HA surface area vs. concentration of unbound peptide at equilibrium. The resulting isotherms were fit to the Langmuir isotherm, x/m=(KANmaxCeq)/(1+KACeq), where x/m represents the molar amount of peptide bound per unit of HA surface area, KA is the affinity constant of the peptide for the HA surface (L/Mol), Nmax is the maximum surface concentration (mol/m^2), and Ceq is the molar concentration of unbound peptide at equilibrium (Calis et al. (1995) Pharm Res., 12: 1072-1076).
In order to quantitatively assess the strength of the DSS-HA interaction as well as to determine the roles of peptide length and sequence on binding, fluorescein-labeled, DSS-containing peptides of various lengths were subjected to pulldown assays as described in “Materials and Methods.”
The experimental data were fit to the Langmuir isotherm, which describes the binding of molecules to surfaces with the conditions that (1) all binding sites have the same affinity for the peptide and (2) the peptide will form a monolayer on the surface but cannot accumulate to higher levels (Atkins (1994) Physical chemistry. Freeman, New York). The excellent fit of the Langmuir isotherm to the experimental data validates these conditions, and the constants obtained from this analysis were used for comparisons between peptides. As shown in FIG. 7A and summarized in Table 6, both the binding affinity (KA) and the monolayer concentration (NMax) of the various peptides increased with the number of DSS repeats per peptide. Additionally, several variant peptides were tested (FIGS. 7B, 7C, Table 6): a peptide containing a longer side chain at the first position (4ESS (SEQ ID NO:34)), peptides containing a more sterically hindered hydroxyl group at the second and third positions (4DTT (SEQ ID NO:36), 4NTT (SEQ ID NO:38), 4ETT (SEQ ID NO:37)), peptides lacking a charged group at the first position (4NSS (SEQ ID NO:35), 8ASS (SEQ ID NO:26)), and peptides lacking hydroxyl groups at the second and third positions (DAA-8 (SEQ ID NO:40), 8NAA (SEQ ID NO:41)).

[2] = Nucleation of hydroxyapatite on tooth enamel (SBFn/SBFg, SEM); parameters: species or system human; settings: demineralized enamel, 12.5 μM peptide
Description: (§1) To determine whether applying DSS to various preparations of tissue promoted HA nucleation, that could ultimately lead to tissue remineralization, sagittally sectioned adult human teeth (obtained after extraction during normal clinical practice) were polished using a Streurs grinding wheel, and prepared for nucleation experiments. Half of the sections were demineralized with 35% phosphoric acid for 15 minutes, then rinsed thoroughly with deionized water. The other half were left untreated. All samples were then sonicated for five minutes to remove excess debris left from cutting and grinding and/or demineralization. Samples were treated with 12.5 μM 8DSS dissolved in 50 mM HEPES buffer solution (pH 7.0), buffer solution only, or left untreated. Samples were then immersed into a simulated body fluid (SBFn), meant to accelerate nucleation of hydroxyapatite (HA) crystals, for 4 hours. Following the nucleation step, samples were immersed in a magnesium and bicarbonate free solution (SBFg) in order to allow the nucleated HA crystals to grow. […] Both solutions were adjusted to pH 6.8. Crystals were grown in order to amplify the nucleated crystals for easy visualization by SEM.

[3] = Nucleation of hydroxyapatite on tooth dentin (SBFn/SBFg, SEM); parameters: species or system human; settings: nondemineralized dentin, 12.5 μM peptide
Description: as §1

[4] = Tissue specific binding of labeled peptides to sections of human teeth (CLSM); settings: 5(6)-carboxyfluorescein-labeled peptide, ten minutes
Source text: In order to investigate the tissue specificity of DSS peptide binding to tooth tissue, sections of human teeth were exposed to DSS peptides and variants, then imaged by CLSM. The peptides utilized for these experiments were 8DSS (SEQ ID NO:33), 8ASS (SEQ ID NO:26), 8DAA (SEQ ID NO:40), 8NAA (SEQ ID NO:41), 4DSS (SEQ ID NO:31), 4ESS (SEQ ID NO:34), 4NSS (SEQ ID NO:35), 4DTT (SEQ ID NO:36), 4ETT (SEQ ID NO:37), 4NTT (SEQ ID NO:38), and 6DSS (SEQ ID NO:32). Sagittal sections of human teeth extracted during normal clinical practice were polished and then incubated for ten minutes in a solution of the appropriate 5(6) carboxyfluorescein-labeled peptide (12.5pM) containing 10 mM NaCl and 50 mM HEPES, pH 7.0. Control samples were prepared without peptide. Samples were washed extensively after treatment and imaged by CLSM using blue laser illumination (A=488 nm) and a FITC emission filter, with identical camera and microscope settings for each sample. For each section, multiple scans were collected and assembled in an automated mode to generate panels of images representing an area of 13×13 mm, sufficient in most cases to encompass the whole section. […] Significant binding was also seen to the edges of the pulp cavity.

[5] = Binding of labeled peptide to sagittally sectioned adult human molars (CLSM, Example 6); settings: fluorescein-labeled peptide, 10 min
Description: For binding experiments, sagittally sectioned adult human molars were incubated for 10 min in a solution of 12.5 p.M 5(6)-carboxyfluorescein-labeled 6DSS (SEQ ID NO:32) peptide containing 10 mM NaCl and 50 mM HEPES, pH 7.0. Control samples were prepared without peptide. Samples were rinsed after treatment and imaged by confocal laser scanning microscopy (CLSM) with illumination by a blue Kr/Ar laser (λ=488 nm) and a FITC emission filter. To test binding of DSS-containing peptides to biological tissue, sagittally sectioned human teeth were incubated treated with 6DSS (SEQ ID NO:32) (control samples were prepared without peptide), washed, and imaged by CLSM.

DSS DSS DSSDSS DSS DSS DSS DSS (DSSDSSDSSDSSDSSDSSDSSDSS; synthetic calcium-binding peptide 8DSS)
Nmax (maximum monolayer surface concentration) [1]: 8.2 × 10^−8 ± 6 × 10^−9 mol/m^2 | KA (binding affinity for HA) ([1]; fluorescein-labeled peptide 0-100 μM, 0.3 mg HA nanocrystals): 290,000 ± 70,000 M^−1 | crystal growth (nucleation) on enamel [2]: significant crystal growth | crystal growth (nucleation) on dentin [3]: the most significant growth | tissue pattern of binding in the tooth section [4]: bound primarily to the mantle dentin | level of binding (staining) to tooth surfaces ([4]; identical settings): the greatest levels of staining | binding to dentin [5]: binds tightly to the dentin | binding to enamel [5]: binding to the enamel almost completely absent
